Measured values as given in patent US8765447B2, “Fungal strain Beauveria sp. MTCC 5184 and a process for the preparation of enzymes therefrom” (Council of Scientific and Industrial Research, priority 2010, dated 2014).

What was measured:
[1] = test system: purified protease of Beauveria sp MTCC 5184; assay: Stability of purified protease in organic solvents at 50° C.; format: biochemical; conditions: 25% (v/v) solvent, pH 7
Source text: Following organic solvents were used: acetone, 1-butanol, benzene, chloroform, dimethylsulphoxide, ethanol, hexane, isopropanol and methanol. […] Samples were removed at different time intervals and residual activity was estimated.

[2] = test system: protease of Beauveria sp MTCC 5184; assay: Stability of protease at 37° C. in water miscible solvents; format: biochemical; conditions: water miscible solvents (FIG. 10)
Protocol: FIG. 10: Stability of protease at 37° C. in presence of water miscible solvents.

[3] = test system: purified protease of Beauveria sp MTCC 5184; conditions: 3 M NaCl (FIG. 14), 28° C., 30 min
Protocol: Samples were removed at regular intervals and residual activity was measured at 50° C., pH 9.0 and expressed as percentage of activity without NaCl taken as 100%.

[4] = test system: purified protease of Beauveria sp MTCC 5184; assay: Effect of urea on protease activity; format: biochemical; conditions: 6M urea, 28° C., 2 h
Protocol: This example illustrates the effect of urea on protease activity of Beauveria sp MTCC 5184. […] In presence of 6M urea, protease was stable up to 2 h and retained more than 85% of initial activity (FIG. 13).

CO [Methanol, methanol]
Residual Activity (%) ([1]; 0 h): 100.00% | Residual Activity (%) ([1]; 1 h): 93.49% | Residual Activity (%) ([1]; 2 h): 46.09% | initial activity retained [2]: > 80%

[Cl-].[Na+] [NaCl]
stability [3]: 100%

NC(N)=O [urea]
initial activity retained [4]: more than 85%
